Each structure is given as a SMILES string. Where “and” joins values, the source holds several entries; their conditions need not be identical. Equal entries are not always repeated.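 Exposure lasted 48 hours, with cells grown in 96-well plates and compounds tested at five concentrations. At the GI50, growth is halved. TGI marks complete inhibition of growth.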

One assay concerns IGROV1 ovarian. The assay can be described thus: NCI tumour cell line growth inhibition, 48 h.
As to `Cc1nc2ccccc2nc1-c1ccc(N=[N+]([O-])c2ccc(-c3nc4ccccc4nc3C)cc2)cc1`, the TGI is > 100 µM.

The subject of a further assay is SR leukemia. The assay can be described thus: NCI tumour cell line growth inhibition, 48 h.
As for `O=C(c1ccc(Cl)cc1)c1cnc(Nc2ccccc2Cl)s1`, the TGI is > 100 µM.

As for `CCOC(=O)C(=Cc1cccc(Cl)c1)C(=O)OCC`, the GI50 is 1.55 µM and the TGI was > 100 µM.

With `C=CC(=O)N1CCC(C2CCNc3c(C(N)=O)c(-c4ccc(Oc5ccccc5)cc4)nn32)CC1` (stereo not given), the GI50 was 10.4 µM and the TGI amounted to 46.8 µM.

As to `CCCCCCNC(=O)c1nc(-c2ccccc2)oc1Cc1ccc(OP(=O)(O)O)cc1`, the GI50 is 21.5 µM and the TGI is 50.2 µM.

For `Cc1ccc(/C=C/c2c(C(=O)/C=C/c3ccc(C(F)(F)F)cc3)c(C)nc3ccccc23)cc1`, the GI50 was 0.451 µM and the TGI was found to be 4.97 µM.

`CCCn1c(N)c(C(=O)N/N=C(/C)c2cc3cccc(OC)c3o2)sc1=S`: the GI50 was 8.66 µM and the TGI was > 100 µM.

Take `N=c1ccn2c(n1)OC1C(O)C(CO)OC12` (stereo not given): the GI50 was 2.6 µM and the TGI is > 231 µM.

Take `C[C@H]1Oc2cc(cnc2N)-c2c(nn(C)c2C#N)CN(C)C(=O)c2ccc(F)cc21`: the TGI was > 100 µM.

For the compound `COc1ccccc1N1CCN(CCCn2c(=O)c3c(OC)nc(C)cc3c(=O)n2-c2ccccc2)CC1`, the GI50 was > 100 µM and the TGI was > 100 µM.

Regarding `Cc1ccc(-c2nc3ccc([N+](=O)[O-])cc3[nH]2)cc1`, the TGI is > 100 µM.

In the case of `CC(=O)c1cc2c(o1)C(=O)c1ccccc1C2=O`, the GI50 was 0.299 µM and 0.308 µM; the TGI was determined as 5.36 µM.

For the compound `CCN(CC)c1nc(-c2ccc(Cl)cc2Cl)nc2ccccc12`, the GI50 was 8.68 µM and the TGI is > 53.2 µM.

With `Cc1nc2ccccc2nc1-c1ccc(N=[N+]([O-])c2ccc(-c3nc4ccccc4nc3C)cc2)cc1`, the TGI is > 100 µM.

The test system of the next assay is KM12 colon. The assay can be described thus: NCI tumour cell line growth inhibition, 48 h.
Consider `O=C(c1ccc(Cl)cc1)c1cnc(Nc2ccccc2Cl)s1`, for which the TGI is > 78.3 µM.

On to `CCOC(=O)C(=Cc1cccc(Cl)c1)C(=O)OCC`, for which the GI50 was 2.35 µM and the TGI came out at 5.8 µM.

For the compound `C=CC(=O)N1CCC(C2CCNc3c(C(N)=O)c(-c4ccc(Oc5ccccc5)cc4)nn32)CC1` (stereo not given), the GI50 was 22.9 µM and the TGI was 67 µM.

As for `CCCCCCNC(=O)c1nc(-c2ccccc2)oc1Cc1ccc(OP(=O)(O)O)cc1`, the GI50 is 17.5 µM and the TGI was determined as 33.2 µM.

Regarding `Cc1ccc(/C=C/c2c(C(=O)/C=C/c3ccc(C(F)(F)F)cc3)c(C)nc3ccccc23)cc1`, the GI50 was 2.06 µM and the TGI was 5.03 µM.

As for `CCCn1c(N)c(C(=O)N/N=C(/C)c2cc3cccc(OC)c3o2)sc1=S`, the GI50 was 22.2 µM and the TGI is > 100 µM.

In the case of `N=c1ccn2c(n1)OC1C(O)C(CO)OC12` (stereo not given), the GI50 is 147 µM and > 40.9 µM; the TGI is > 806 µM.

In the case of `C[C@H]1Oc2cc(cnc2N)-c2c(nn(C)c2C#N)CN(C)C(=O)c2ccc(F)cc21`, the GI50 is 0.275 µM and the TGI was > 100 µM.

On to `COc1ccccc1N1CCN(CCCn2c(=O)c3c(OC)nc(C)cc3c(=O)n2-c2ccccc2)CC1`, for which the GI50 was > 100 µM and the TGI was > 100 µM.

As to `Cc1ccc(-c2nc3ccc([N+](=O)[O-])cc3[nH]2)cc1`, the TGI was > 100 µM.

For the compound `CC(=O)c1cc2c(o1)C(=O)c1ccccc1C2=O`, the GI50 was 0.543 µM and 0.713 µM; the TGI was 1.62 µM and 2.09 µM.

In the case of `CCN(CC)c1nc(-c2ccc(Cl)cc2Cl)nc2ccccc12`, the GI50 was 20.2 µM and the TGI stood at 59.8 µM.

`Cc1nc2ccccc2nc1-c1ccc(N=[N+]([O-])c2ccc(-c3nc4ccccc4nc3C)cc2)cc1`: the TGI was > 100 µM.

The test system of a further assay is DU-145 prostate. The assay can be described thus: NCI tumour cell line growth inhibition, 48 h.
As to `O=C(c1ccc(Cl)cc1)c1cnc(Nc2ccccc2Cl)s1`, the TGI worked out at 48.7 µM.

Regarding `CCOC(=O)C(=Cc1cccc(Cl)c1)C(=O)OCC`, the GI50 was 2.21 µM and the TGI is 5.4 µM.

Consider `C=CC(=O)N1CCC(C2CCNc3c(C(N)=O)c(-c4ccc(Oc5ccccc5)cc4)nn32)CC1` (stereo not given), for which the GI50 was 11.6 µM and the TGI was > 100 µM.

With `CCCCCCNC(=O)c1nc(-c2ccccc2)oc1Cc1ccc(OP(=O)(O)O)cc1`, the GI50 is 10.2 µM and the TGI was found to be 22.3 µM.

Take `Cc1ccc(/C=C/c2c(C(=O)/C=C/c3ccc(C(F)(F)F)cc3)c(C)nc3ccccc23)cc1`: the GI50 was 1.56 µM and the TGI is 2.9 µM.

Take `CCCn1c(N)c(C(=O)N/N=C(/C)c2cc3cccc(OC)c3o2)sc1=S`: the GI50 is 26.4 µM and the TGI is > 100 µM.

As for `N=c1ccn2c(n1)OC1C(O)C(CO)OC12` (stereo not given), the GI50 is 2.53 µM and 0.886 µM; the TGI is > 1000 µM.

`C[C@H]1Oc2cc(cnc2N)-c2c(nn(C)c2C#N)CN(C)C(=O)c2ccc(F)cc21`: the GI50 is 26.6 µM and the TGI is > 100 µM.

With `COc1ccccc1N1CCN(CCCn2c(=O)c3c(OC)nc(C)cc3c(=O)n2-c2ccccc2)CC1`, the GI50 is > 100 µM and the TGI was > 100 µM.

In the case of `Cc1ccc(-c2nc3ccc([N+](=O)[O-])cc3[nH]2)cc1`, the TGI is > 100 µM.

Take `CC(=O)c1cc2c(o1)C(=O)c1ccccc1C2=O`: the GI50 was 0.174 µM and 0.186 µM; the TGI was 0.32 µM and 0.331 µM.

On to `CCN(CC)c1nc(-c2ccc(Cl)cc2Cl)nc2ccccc12`, for which the GI50 was 13.6 µM and the TGI is > 58.9 µM.

As to `Cc1nc2ccccc2nc1-c1ccc(N=[N+]([O-])c2ccc(-c3nc4ccccc4nc3C)cc2)cc1`, the TGI was > 100 µM.

Another assay concerns HT29 colon. The assay can be described thus: NCI tumour cell line growth inhibition, 48 h.
Consider `O=C(c1ccc(Cl)cc1)c1cnc(Nc2ccccc2Cl)s1`, for which the TGI was > 100 µM.

For the compound `CCOC(=O)C(=Cc1cccc(Cl)c1)C(=O)OCC`, the GI50 is 2.39 µM and the TGI was found to be 5.57 µM.

Consider `C=CC(=O)N1CCC(C2CCNc3c(C(N)=O)c(-c4ccc(Oc5ccccc5)cc4)nn32)CC1` (stereo not given), for which the GI50 was 16.6 µM and the TGI was 55.8 µM.

On to `CCCCCCNC(=O)c1nc(-c2ccccc2)oc1Cc1ccc(OP(=O)(O)O)cc1`, for which the GI50 is 19.5 µM and the TGI is 37.8 µM.

Turning to `Cc1ccc(/C=C/c2c(C(=O)/C=C/c3ccc(C(F)(F)F)cc3)c(C)nc3ccccc23)cc1`, the GI50 is 0.674 µM and the TGI amounted to 4.57 µM.

For `CCCn1c(N)c(C(=O)N/N=C(/C)c2cc3cccc(OC)c3o2)sc1=S`, the GI50 is 16.4 µM and the TGI is > 100 µM.

For `N=c1ccn2c(n1)OC1C(O)C(CO)OC12` (stereo not given), the GI50 is 6.23 µM and the TGI is > 1000 µM.

In the case of `C[C@H]1Oc2cc(cnc2N)-c2c(nn(C)c2C#N)CN(C)C(=O)c2ccc(F)cc21`, the GI50 was 5.76 µM and the TGI is > 100 µM.

As to `COc1ccccc1N1CCN(CCCn2c(=O)c3c(OC)nc(C)cc3c(=O)n2-c2ccccc2)CC1`, the GI50 is > 100 µM and the TGI was > 100 µM.

Take `Cc1ccc(-c2nc3ccc([N+](=O)[O-])cc3[nH]2)cc1`: the TGI was > 100 µM.

Take `CC(=O)c1cc2c(o1)C(=O)c1ccccc1C2=O`: the GI50 is 0.226 µM and 0.276 µM; the TGI was 0.529 µM and 0.756 µM.

Regarding `CCN(CC)c1nc(-c2ccc(Cl)cc2Cl)nc2ccccc12`, the GI50 is 37.6 µM and the TGI is > 100 µM.

As to `Cc1nc2ccccc2nc1-c1ccc(N=[N+]([O-])c2ccc(-c3nc4ccccc4nc3C)cc2)cc1`, the TGI is > 100 µM.

The test system of the next assay is HS 578T breast. Kind of assay: NCI tumour cell line growth inhibition, 48 h.
Regarding `O=C(c1ccc(Cl)cc1)c1cnc(Nc2ccccc2Cl)s1`, the TGI stood at 68.8 µM.

Take `CCOC(=O)C(=Cc1cccc(Cl)c1)C(=O)OCC`: the GI50 was 4.29 µM and the TGI was 29.8 µM.

For `C=CC(=O)N1CCC(C2CCNc3c(C(N)=O)c(-c4ccc(Oc5ccccc5)cc4)nn32)CC1` (stereo not given), the GI50 was 20.6 µM and the TGI was found to be 78.4 µM.

Take `CCCCCCNC(=O)c1nc(-c2ccccc2)oc1Cc1ccc(OP(=O)(O)O)cc1`: the GI50 is 18.7 µM and the TGI turned out to be 54.8 µM.

As for `Cc1ccc(/C=C/c2c(C(=O)/C=C/c3ccc(C(F)(F)F)cc3)c(C)nc3ccccc23)cc1`, the GI50 is 1.66 µM and the TGI was 4.63 µM.

For `CCCn1c(N)c(C(=O)N/N=C(/C)c2cc3cccc(OC)c3o2)sc1=S`, the GI50 is 17.7 µM and the TGI stood at 69.9 µM.

With `N=c1ccn2c(n1)OC1C(O)C(CO)OC12` (stereo not given), the GI50 is > 100 µM and the TGI was > 1000 µM.

Turning to `C[C@H]1Oc2cc(cnc2N)-c2c(nn(C)c2C#N)CN(C)C(=O)c2ccc(F)cc21`, the GI50 is 18.3 µM and the TGI is > 100 µM.

As for `COc1ccccc1N1CCN(CCCn2c(=O)c3c(OC)nc(C)cc3c(=O)n2-c2ccccc2)CC1`, the GI50 was > 100 µM and the TGI was > 100 µM.

With `Cc1ccc(-c2nc3ccc([N+](=O)[O-])cc3[nH]2)cc1`, the TGI was > 100 µM.

Turning to `CC(=O)c1cc2c(o1)C(=O)c1ccccc1C2=O`, the GI50 is 0.292 µM and 0.295 µM; the TGI is 0.771 µM and 0.806 µM.

For the compound `CCN(CC)c1nc(-c2ccc(Cl)cc2Cl)nc2ccccc12`, the GI50 is 8.82 µM and the TGI was found to be 35.1 µM.

For `Cc1nc2ccccc2nc1-c1ccc(N=[N+]([O-])c2ccc(-c3nc4ccccc4nc3C)cc2)cc1`, the TGI is > 95.9 µM.

Source of the values: PubChem BioAssay (NCI).
